Several values for one entry are separate records, joined by “and”; a condition that tells them apart may be missing. Equal values may be shown once. Read-outs that look alike come from different tables or passages of the source.
Columns and labels:
[1] = cited from earlier work
[2] = test system: plasma protein; conditions: Table of Exemplary Drugs, cited from earlier work
[3] = test system: CYP450 enzymes; conditions: cited from earlier work
[4] = test system: CYP2C19
[5] = test system: CYP2D6; test: Saliva phenotyping with dextromethorphan probe (dextromethorphan/dextrorphan metabolic ratio); type: in vivo, human
Description: 3. […] Record the time in your lab notebook.
1. […] Repeat with the other three saliva samples.
4. […] Repeat with the other three saliva samples.

[6] = cited from earlier work; remark: listed apart in the source
[7] = biological target: T1, CYP3A4 (Homo sapiens, UniProt P08684); design: endogenous in cells; host or cells: healthy volunteers, in vivo; saliva sampled; conditions: eplerenone; cited from earlier work
[8] = biological target: T1, CYP3A4; conditions: parent and primary metabolite, CYP3A4 probe search
[9] = biological target: T2, CYP1A2 (Homo sapiens, UniProt P05177); test: Saliva phenotyping with caffeine probe (caffeine/paraxanthine metabolic ratio); type: in vivo
T2 sequence (P05177 1-516): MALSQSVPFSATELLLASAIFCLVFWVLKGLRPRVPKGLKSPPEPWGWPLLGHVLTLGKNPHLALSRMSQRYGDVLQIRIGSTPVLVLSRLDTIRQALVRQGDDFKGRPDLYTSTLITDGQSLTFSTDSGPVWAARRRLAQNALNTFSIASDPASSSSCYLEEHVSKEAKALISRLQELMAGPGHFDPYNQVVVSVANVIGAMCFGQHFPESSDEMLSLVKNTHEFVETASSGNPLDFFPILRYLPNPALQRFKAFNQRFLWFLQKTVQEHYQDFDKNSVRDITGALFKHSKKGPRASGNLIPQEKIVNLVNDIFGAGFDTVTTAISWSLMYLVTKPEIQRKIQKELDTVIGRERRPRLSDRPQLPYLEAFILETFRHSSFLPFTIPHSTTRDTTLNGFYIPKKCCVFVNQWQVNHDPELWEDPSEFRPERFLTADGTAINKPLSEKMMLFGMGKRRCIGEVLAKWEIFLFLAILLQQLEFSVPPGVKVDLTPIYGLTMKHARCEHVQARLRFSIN

[10] = test system: CYP2C19; conditions: saliva, repeat doses of Formulation #4, per subject and tablet #
[11] = without an enteric coating or base protection; cited from earlier work
[12] = test system: CYP2D6; conditions: Hou et al., saliva, cited from earlier work
[13] = Table of Exemplary Drugs, CYP3A4
[14] = Table of Exemplary Drugs, CYP1A2
[15] = saliva, healthy adults, omeprazole 20 mg
[16] = Table of Exemplary Drugs, CYP2C19
[17] = saliva, healthy adults, dextromethorphan 30 mg
[18] = Table of Exemplary Drugs, CYP2D6

T1 sequence (P08684 whole entry): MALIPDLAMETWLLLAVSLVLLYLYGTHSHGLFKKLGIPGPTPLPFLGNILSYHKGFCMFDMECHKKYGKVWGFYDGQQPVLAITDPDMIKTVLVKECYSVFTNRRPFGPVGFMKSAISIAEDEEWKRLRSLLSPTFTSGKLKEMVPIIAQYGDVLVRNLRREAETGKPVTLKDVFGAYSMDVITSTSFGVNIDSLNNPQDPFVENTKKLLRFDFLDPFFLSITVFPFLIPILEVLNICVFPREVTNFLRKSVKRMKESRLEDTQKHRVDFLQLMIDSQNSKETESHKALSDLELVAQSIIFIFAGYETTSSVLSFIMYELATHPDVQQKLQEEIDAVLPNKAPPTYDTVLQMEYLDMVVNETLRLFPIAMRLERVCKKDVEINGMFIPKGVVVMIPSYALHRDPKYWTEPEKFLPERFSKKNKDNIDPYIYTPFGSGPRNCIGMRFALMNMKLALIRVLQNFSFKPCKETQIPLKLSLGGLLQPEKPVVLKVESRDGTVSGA

SMILES: CN(C)CCc1c[nH]c2ccc(CS(=O)(=O)N3CCCC3)cc12 [Almortriptan (Axert), Almortriptan]
- ORAL BIOAVAILABILITY [1, 13]: 70%
- PLASMA PROTEIN BINDING ([2]; CYP3A4): 35%
- METABOLISM ([3]; CYP isoforms listed, Table of Exemplary Drugs, CYP3A4): 2D6, MAO

SMILES: COc1ccc2nc([S+]([O-])Cc3ncc(CO)c(OC)c3C)[nH]c2c1 (stereo not drawn) [5-hydroxy omeprazole]
- concentrations in saliva ([4]; in vivo): found in low concentrations in saliva of some individuals

SMILES: CN1CC[C@@]23CCCC[C@@H]2[C@@H]1Cc1ccc(O)cc13 [Dextrorphan]
- concentrations in saliva ([5]; individuals dosed with over the counter formulations): sometimes found in very low concentrations in saliva

SMILES: COC(=O)C1=C(C)NC(C)=C(C(=O)OCCN(C)Cc2ccccc2)C1c1cccc([N+](=O)[O-])c1 (stereo not drawn) [Nicardipine (Cardene), Nicardipine]
- ORAL BIOAVAILABILITY [1, 13]: 35%
- HALF-LIFE [6, 13]: 8.6 to 14.4 h
- METABOLISM [3]: 3A4, 2C8, 2D6

SMILES: COC(=O)[C@@H]1CC2=CC(=O)CC[C@]2(C)[C@@]23O[C@@H]2C[C@@]2(C)[C@@H](CC[C@@]24CCC(=O)O4)[C@H]13 [Eplerenone (Inspra), Eplerenone]
- ORAL BIOAVAILABILITY [1, 13]: 69%
- PLASMA PROTEIN BINDING ([2]; CYP3A4): 50%
- HALF-LIFE [6, 13]: 3 to 6 h
- Tmax [7]: approximately 1.5 hours

SMILES: Cn1c(=O)c2[nH]cnc2n(C)c1=O [Theophylline]
- ORAL BIOAVAILABILITY [1, 14]: ~100%
- HALF-LIFE [6, 14]: 1.5 to 9.8 h
- METABOLISM ([3]; CYP isoforms listed, Table of Exemplary Drugs, CYP1A2): 2E1

SMILES: COC(=O)[C@H]1[C@H]2[C@@H]3CC[C@@]4(CCC(=O)O4)[C@@]3(C)C[C@H]3O[C@@]23[C@@]2(C)CCC(=O)C=C2[C@@H]1O [6Beta-Hydroxy Eplerenone]
- concentrations in saliva [8]: sufficiently high concentrations in saliva

SMILES: Cn1c(=O)c2c(ncn2C)n(C)c1=O [Caffeine]
- complaints of individuals ([9]; caffeine doses of 200 mg, some individuals): nervousness and anxiety
- poor metabolizers, share of subjects (CYP1A2 phenotype) ([9]; saliva, healthy primarily Caucasian adults, caffeine 200 mg): 7.8%
- PLASMA PROTEIN BINDING ([2]; CYP1A2): 17-36% ^

SMILES: COc1ccc2[nH]c([S+]([O-])Cc3ncc(C)c(OC)c3C)nc2c1 (stereo not drawn) [Omeprazole]
- concentrations in saliva ([4]; over the counter formulations, some individuals): found in low concentrations in saliva of some individuals
- CYP2C19 metabolic phenotype: Extensive [4, 15]: 49.4%
- CYP2C19 metabolic phenotype: Intermediate [4, 15]: 31.3%
- CYP2C19 metabolic phenotype: Poor [4, 15]: 7.2%
- CYP2C19 metabolic phenotype: Rapid [4, 15]: 9.6%
- CYP2C19 metabolic phenotype: Ultra-rapid [4, 15]: 2.4%
- Log10 Omeprazole/5-Hydroxy Omeprazole Metabolic Ratio ([10]; time point 0.5 h): 0.9 and 2.3 (2×) and 1.4 and 2.4 and 3.5 and 3.1
- Log10 Omeprazole/5-Hydroxy Omeprazole Metabolic Ratio ([10]; time point 1 h): 1.2 (2×) and 0.7 (2×) and 1.5 and 1.1 and 1.3 and 1.9 and 1.4
- Log10 Omeprazole/5-Hydroxy Omeprazole Metabolic Ratio ([10]; time point 2 h): 0.6 (2×) and 0.5 and 1.3 (2×) and 0.9 and 0.8 and 1.1 and 1.0 and 1.2 and 0.4 and 2.0
- Log10 Omeprazole/5-Hydroxy Omeprazole Metabolic Ratio ([10]; time point 3 h): 0.4 (2×) and 0.7 and 0.9 (2×) and 0.8 and 0.6 (2×) and 1.3 (2×) and 0.05 and 0.2 and 1.6 and 1.0
- Log10 Omeprazole/5-Hydroxy Omeprazole Metabolic Ratio ([10]; time point 4 h): 0.4 (2×) and 1.2 and 1.0 and 0.6 (3×) and 0.7 and 0.9 and 0.03 and 1.3
- stability in acidic gastric fluids [11]: rapidly degrades
- ORAL BIOAVAILABILITY [1, 16]: 30-40%
- PLASMA PROTEIN BINDING ([2]; CYP2C19): 95-96% ^
- HALF-LIFE [6, 16]: 0.5 to 1 h

SMILES: COc1ccc2c(c1)[C@]13CCCC[C@@H]1[C@H](C2)N(C)CC3 [Dextromethophan]
- antimode (MR) marking poor metabolizers ([5]; saliva, 6 hours after a 30 mg delayed release dose): 27.5
- CYP2D6 metabolic phenotype: Extensive [5, 17]: 83.9%
- CYP2D6 metabolic phenotype: Intermediate [5, 17]: 9.2%
- CYP2D6 metabolic phenotype: Poor [5, 17]: 4.6%
- CYP2D6 metabolic phenotype: Ultra-rapid [5, 17]: 2.3%
- ORAL BIOAVAILABILITY ([1]; in vivo, po): 11%
- HALF-LIFE ([6]; in vivo): 1.4 to 3.9 h
- antimode (MR) marking poor metabolizers ([12]; healthy Chinese subjects, 3 hours after 50 mg immediate release): 14
- antimode (MR) ([12]; patients with renal disease, 3 hours after 30 mg immediate release): 33

SMILES: COCCCOc1ccnc(C[S+]([O-])c2nc3ccccc3[nH]2)c1C (stereo not drawn) [Rabeprazole]
- ORAL BIOAVAILABILITY [1, 16]: 52%
- HALF-LIFE [6, 16]: 1 to 2 h
- METABOLISM ([3]; CYP isoforms listed, Table of Exemplary Drugs, CYP2C19): 3A

SMILES: COc1ccccc1OCCNCC(O)COc1cccc2[nH]c3ccccc3c12 (stereo not drawn) [Carvedilol]
- ORAL BIOAVAILABILITY [1, 18]: 25-35%
- PLASMA PROTEIN BINDING ([2]; CYP2D6): 95-98% ^
- HALF-LIFE [6, 18]: 6 to 10 h

SMILES: C#Cc1cccc(Nc2ncnc3cc(OCCOC)c(OCCOC)cc23)c1 [Erlotinib]
- ORAL BIOAVAILABILITY [1, 14]: 60-100%
- ORAL BIOAVAILABILITY [1, 13]: 60%
- PLASMA PROTEIN BINDING ([2]; CYP1A2): 93%
- PLASMA PROTEIN BINDING ([2]; CYP3A4): 93%
- HALF-LIFE [6, 14]: 36.2 h

SMILES: CCCN1CCCC[C@H]1C(=O)Nc1c(C)cccc1C [Ropivacaine]
- ORAL BIOAVAILABILITY ([1]; cell marked IV, Table of Exemplary Drugs, CYP1A2): 87-98% - IV
- PLASMA PROTEIN BINDING ([2]; CYP1A2): 94%
- HALF-LIFE [6, 14]: 5 to 7 h

SMILES: O=C(CCCN1CCC(O)(c2ccc(Cl)cc2)CC1)c1ccc(F)cc1 [Haloperidol]
- ORAL BIOAVAILABILITY [1, 14]: 60%
- ORAL BIOAVAILABILITY [1, 18]: 60%
- PLASMA PROTEIN BINDING ([2]; CYP1A2): 88.4-92.5% ^
- PLASMA PROTEIN BINDING ([2]; CYP2D6): 88.4-92.5% ^
- HALF-LIFE [6, 14]: 14 to 37 h
- HALF-LIFE [6, 18]: 14 to 37 h

— patent US10927398B2, “Compositions for CYP450 phenotyping using saliva samples” (Concordia University, Inc., priority 2015, dated 2021)
